Measurements: article PMC4198181, “Gold(I) Complexes of 9-Deazahypoxanthine as Selective Antitumor and Anti-Inflammatory Agents” (PLoS ONE, 2014)

Test system: polymorphonuclear cells infiltration in hind paw tissue
Assay: Ex vivo histological evaluation of hind paw tissue (HE staining, PMN infiltration)
Format: in vivo, Wistar-SPF rats
Details: 6 h after carrageenan, Indomethacin 5 mg/kg
Protocol: The carrageenan-induced hind paw edema model was used for the determination of anti-inflammatory activity. Animals were i.p. pretreated with complexes 2, 4, and 5 (the dosages of the individual complexes were adjusted to contain the same amount of gold as in 10 mg/kg dose of Auranofin), Indomethacin (5 mg/kg), or 25% DMSO (v/v in water) 30 min prior to the injection of 1% λ-carrageenan solution (50 µL) into the plantar side of right hind paws of the rats. The paw volume was measured immediately after the carrageenan injection (this value was set-up as baseline value for the hind paw volume) and during the next 6 h after the administration of the edematogenic agent using a plethysmometer (model 7159, Ugo Basile, Varese, Italy). The degree of swelling was evaluated as a percentage of the change of the volume of the right hind paw after the carrageenan treatment from the baseline volume. A non-steroidal anti-inflammatory drug Indomethacin was used as a positive control and the obtained data were also compared with the previously reported profile of antiedematous activity for Auranofin [38]. After 6 h, the animals were sacrificed and the edematous feet were dissected, the tissue from the plantar parts was extracted, fixed and stained by a standard hematoxylin/eosin (HE) staining for cytological evaluation of polymorphonuclear cells infiltration.
To assess the tissue consequences connected with the reduction of inflammation caused by the tested compounds after the intraplantar injection of carrageenan, the histopathological observations were made on the tissue sections obtained from the laboratory animals after the plethysmometric experiments were finished. All animals were sacrificed by cervical dislocation, and immediately after that, the tissue samples were taken from the plantar area of hind paws. The histopathological changes in tissues, stained by the standard HE staining (see Figure 10), were evaluated by the presence of the inflammation infiltrate, which contained mainly neutrophils (polymorphonuclear cells - PMN).

COc1ccc2c(c1)c(CC(=O)O)c(C)n2C(=O)c1ccc(Cl)cc1 [Indomethacin, reference compound]
PMN (neutrophil) infiltrate in hind paw tissue sections: mainly scarce and diffuse
